Source: US20230241205A1, “SARS-COV-2 IMMU[…] AND USES THEREOF” (TScan Therapeutics, Inc., priority 2020, published 2023)

Tests used:
Format in all cases: cell-based, human
[1] = system: memory CD8+ T cells of convalescent COVID-19 patients; target cells expressing only HLA-A*03:01; details: share of screened convalescent patients whose memory CD8+ T cells recognised the epitope; allele A*03
OC43 and HKU1 = test: T-Scan screen, reactivity to corresponding epitopes in OC43 and HKU1 ORFeomes; details: COVID-19 patient memory CD8+ T cells
[2] = system: memory CD8+ T cells of convalescent COVID-19 patients; target cells expressing only HLA-A*02:01; details: of 9 HLA-A*02:01 patients

| Substance | reactivity to corresponding epitopes in OC43 and HKU1 (OC43 and HKU1) | patients in whom epitope or region was identified / recognized [2] | also measured |
| --- | --- | --- | --- |
| KCYGVSPTKY |  |  | % of Pts (Screen) [1]: 100% |
| KLWAQCVQL | do not recognize them |  |  |
| ORF1ab aa 3881-3900: 20-aa segment of SARS-CoV-2 ORF1ab recognized in the T-Scan screen |  | 7 of 9 |  |
| S aa 261-280: 20-aa segment of SARS-CoV-2 S protein recognized in the T-Scan screen |  | 7 of 9 |  |
| SPRWYFYYL | all four of the patients |  |  |
